Measurements from patent EP0213526A1, “Spergualin-related compounds, a process for their preparation and their use as medicaments” (MICROBIAL CHEMISTRY RESEARCH FOUNDATION, priority 1985, dated 1987).

Legend:
mouse leukemia L-1210 [1] = experiment: Therapeutic effects on cancer in mice (life prolongation, mouse leukemia L-1210); assay type: in vivo; conditions: 6 consecutive days, male BDF1 mice; for Percent life pro-longation: 10^5 L-1210 cells i.p., T/C x 100; for Percent survival for 30 days: groups of four, L-1210
Experimental: Male BDF1 mice (5-wk old) in groups comprising four heads were inoculated intraperitoneally with 10^5 cells of mouse leukemia L-1210. Starting on the day of inoculation, a selected sample dissolved in a physiological saline solution was administered intraperitoneally to each animal for 6 consecutive days on a one-dose-per-day basis. After keeping the animals for 30 days, the life-prolongation effect of sample was determined form the following formula:
Life-prolongation effect = T/C x 100 = (Average number of days of survival of the treated group / Average number of days of survival of the control group) x 100.

mouse leukemia FL-4 = conditions: healing experiments, from Japanese Patent Public Disclosure No. 48975/1982; cited from earlier work
[2] = system: Gram-positive microorganisms; conditions: background statement; cited from earlier work
mouse leukemia L-1210 [3] = conditions: healing experiments, from Japanese Patent Public Disclosure No. 48975/1982; cited from earlier work
Ehrlich cancer = conditions: healing experiments, from Japanese Patent Public Disclosure No. 48975/1982; cited from earlier work
sarcoma 180 (S-180) = conditions: healing experiments, from Japanese Patent Public Disclosure No. 48975/1982; cited from earlier work
[4] = system: Gram-negative microorganisms; conditions: background statement; cited from earlier work
[5] = Dose 0.20 mg/kg/day intraperitoneally
[6] = Dose 0.39 mg/kg/day intraperitoneally
[7] = Dose 0.78 mg/kg/day intraperitoneally
[8] = Dose 1.56 mg/kg/day intraperitoneally
[9] = Dose 3.13 mg/kg/day intraperitoneally
[10] = Dose 6.25 mg/kg/day intraperitoneally
[11] = Dose 12.5 mg/kg/day intraperitoneally
[12] = Dose 25 mg/kg/day intraperitoneally
[13] = Dose 50 mg/kg/day intraperitoneally

Row | Structure (SMILES) | Percent life pro-longation (mouse leukemia L-1210 [1]; [5]) [%] | Percent survival for 30 days (mouse leukemia L-1210 [1]; [5]) | Percent life pro-longation (mouse leukemia L-1210 [1]; [6]) [%] | Percent survival for 30 days (mouse leukemia L-1210 [1]; [6]) | Percent life pro-longation (mouse leukemia L-1210 [1]; [7]) [%] | Percent survival for 30 days (mouse leukemia L-1210 [1]; [7]) | Percent life pro-longation (mouse leukemia L-1210 [1]; [8]) [%] | Percent survival for 30 days (mouse leukemia L-1210 [1]; [8]) | Percent life pro-longation (mouse leukemia L-1210 [1]; [9]) [%] | Percent survival for 30 days (mouse leukemia L-1210 [1]; [9]) | Percent life pro-longation (mouse leukemia L-1210 [1]; [10]) [%] | Percent survival for 30 days (mouse leukemia L-1210 [1]; [10]) | Percent life pro-longation (mouse leukemia L-1210 [1]; [11]) [%] | Percent survival for 30 days (mouse leukemia L-1210 [1]; [11]) | Percent life pro-longation (mouse leukemia L-1210 [1]; [12]) [%] | Percent survival for 30 days (mouse leukemia L-1210 [1]; [12]) | Percent life pro-longation (mouse leukemia L-1210 [1]; [13]) [%] | Percent survival for 30 days (mouse leukemia L-1210 [1]; [13]) | other results
1 | N=C(N)Nc1ccc(CCCC(=O)NC(O)C(=O)NCCCCNCCCN)cc1 (racemic) [Compound 1, 10-{N-[4-(4-guanidinophenyl)butanoyl]-α-hydroxyglycyl}-1,5,10-triazadecane] | 110 | 0/4 | 120 | 0/4 | 155 | 0/4 | 197 | 0/4 | > 335 | 2/4 | > 363 | 2/4 | > 401 | 3/4 | > 356 | 2/4 | 0 | 0/4 | –
2 | COC(NC(=O)CCCc1ccc(NC(=N)N)cc1)C(=O)NCCCCNCCCN (racemic) [Compound 2, 10-{N-[4-(4-guanidinophenyl)butanoyl]-α-methoxyglycyl}-1,5,10-triazadecane] | 104 | 0/4 | 111 | 0/4 | 118 | 0/4 | 171 | 0/4 | > 368 | 3/4 | > 403 | 3/4 | > 417 | 4/4 | > 417 | 4/4 | 0 | 0/4 | –
3 | N=C(N)NCCCC[C@H](O)CC(=O)NC(O)C(=O)NCCCCNCCCN (stereo partly drawn) [Spergualin] | – | – | – | – | – | – | – | – | – | – | – | – | – | – | – | – | – | – | therapeutic and life-prolonging effects (mouse leukemia FL-4): appreciable therapeutic and life-prolonging effects; effect of inhibiting the growth [2]: inhibiting the growth; therapeutic and life-prolonging effects (mouse leukemia L-1210 [3]): appreciable therapeutic and life-prolonging effects; therapeutic and life-prolonging effects (Ehrlich cancer): appreciable therapeutic and life-prolonging effects; therapeutic and life-prolonging effects (sarcoma 180 (S-180)): appreciable therapeutic and life-prolonging effects; effect of inhibiting the growth [4]: inhibiting the growth
